Assays:
human TRPA1 = target: T1, human TRPA1 (Homo sapiens, UniProt O75762); test: 45Calcium uptake assay: inhibition of AITC induced cellular uptake of radioactive calcium, human TRPA1 expressing CHO cells; format: cell-based; settings: AITC 30 μM; for inhibition at 1 µM: 1.0 μM compound, read-out: human TRPA1 Percentage inhibition at 1.0 μM; for inhibition at 10 µM: 10.0 μM compound, read-out: human TRPA1 Percentage inhibition at 10.0 μM; for IC50: class symbols
T1 construct: expressed in transfected cells; host or cells: CHO cells (G-418 selection)
T1 sequence (O75762 whole entry): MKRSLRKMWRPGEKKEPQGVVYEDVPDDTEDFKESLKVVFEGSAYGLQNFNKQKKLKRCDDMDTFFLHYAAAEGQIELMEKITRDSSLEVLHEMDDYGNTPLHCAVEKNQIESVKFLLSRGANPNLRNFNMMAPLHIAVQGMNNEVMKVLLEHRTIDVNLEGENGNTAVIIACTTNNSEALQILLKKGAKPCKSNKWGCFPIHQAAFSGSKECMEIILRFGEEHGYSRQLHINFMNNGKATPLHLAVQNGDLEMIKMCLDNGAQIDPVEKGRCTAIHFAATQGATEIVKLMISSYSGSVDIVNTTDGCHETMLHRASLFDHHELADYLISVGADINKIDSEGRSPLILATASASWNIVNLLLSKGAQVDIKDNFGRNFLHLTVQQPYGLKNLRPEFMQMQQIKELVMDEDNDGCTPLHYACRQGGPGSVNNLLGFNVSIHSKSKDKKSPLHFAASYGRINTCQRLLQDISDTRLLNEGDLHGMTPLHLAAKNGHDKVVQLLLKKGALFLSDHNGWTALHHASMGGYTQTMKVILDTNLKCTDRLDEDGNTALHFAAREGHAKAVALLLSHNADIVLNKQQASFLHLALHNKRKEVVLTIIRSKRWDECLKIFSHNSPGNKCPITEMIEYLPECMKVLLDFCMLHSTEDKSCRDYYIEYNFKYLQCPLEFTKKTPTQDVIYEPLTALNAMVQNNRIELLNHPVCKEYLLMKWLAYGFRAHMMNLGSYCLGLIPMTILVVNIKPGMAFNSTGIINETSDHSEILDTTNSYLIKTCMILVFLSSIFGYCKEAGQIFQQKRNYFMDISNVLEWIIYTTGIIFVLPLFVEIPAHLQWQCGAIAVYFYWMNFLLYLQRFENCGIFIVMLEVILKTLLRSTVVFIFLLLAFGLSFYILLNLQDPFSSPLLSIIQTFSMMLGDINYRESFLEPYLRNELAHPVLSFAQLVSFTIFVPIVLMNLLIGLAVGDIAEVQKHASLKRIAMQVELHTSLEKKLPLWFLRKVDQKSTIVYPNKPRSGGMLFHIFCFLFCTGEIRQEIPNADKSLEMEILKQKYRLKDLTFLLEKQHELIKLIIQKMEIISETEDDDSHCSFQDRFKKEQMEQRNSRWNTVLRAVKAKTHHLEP
Outline: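 CHO cells expressing TRPA1 were preincubated 10 min with compound (0.5% DMSO final), then given AITC (30 μM human, 10 μM rat) plus 5 μCi/ml 45Ca2+ for 3 min. Lysate radioactivity measured by scintillation; IC50 obtained by nonlinear regression of % maximal response without antagonist.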

rat TRPA1 = target: T2, rat TRPA1 (Rattus norvegicus, UniProt Q6RI86); test: 45Calcium uptake assay: inhibition of AITC induced cellular uptake of radioactive calcium, rat TRPA1 expressing CHO cells; format: cell-based; settings: AITC 10 μM; for inhibition at 10 µM: 10.0 μM compound, read-out: rat TRPA1 Percentage inhibition at 10.0 μM; for inhibition at 1 µM: read-out: rat TRPA1 Percentage inhibition; for IC50: class symbols
T2 construct: expressed in transfected cells; host or cells: CHO cells (Zeocin selection)
T2 sequence (Q6RI86 whole entry): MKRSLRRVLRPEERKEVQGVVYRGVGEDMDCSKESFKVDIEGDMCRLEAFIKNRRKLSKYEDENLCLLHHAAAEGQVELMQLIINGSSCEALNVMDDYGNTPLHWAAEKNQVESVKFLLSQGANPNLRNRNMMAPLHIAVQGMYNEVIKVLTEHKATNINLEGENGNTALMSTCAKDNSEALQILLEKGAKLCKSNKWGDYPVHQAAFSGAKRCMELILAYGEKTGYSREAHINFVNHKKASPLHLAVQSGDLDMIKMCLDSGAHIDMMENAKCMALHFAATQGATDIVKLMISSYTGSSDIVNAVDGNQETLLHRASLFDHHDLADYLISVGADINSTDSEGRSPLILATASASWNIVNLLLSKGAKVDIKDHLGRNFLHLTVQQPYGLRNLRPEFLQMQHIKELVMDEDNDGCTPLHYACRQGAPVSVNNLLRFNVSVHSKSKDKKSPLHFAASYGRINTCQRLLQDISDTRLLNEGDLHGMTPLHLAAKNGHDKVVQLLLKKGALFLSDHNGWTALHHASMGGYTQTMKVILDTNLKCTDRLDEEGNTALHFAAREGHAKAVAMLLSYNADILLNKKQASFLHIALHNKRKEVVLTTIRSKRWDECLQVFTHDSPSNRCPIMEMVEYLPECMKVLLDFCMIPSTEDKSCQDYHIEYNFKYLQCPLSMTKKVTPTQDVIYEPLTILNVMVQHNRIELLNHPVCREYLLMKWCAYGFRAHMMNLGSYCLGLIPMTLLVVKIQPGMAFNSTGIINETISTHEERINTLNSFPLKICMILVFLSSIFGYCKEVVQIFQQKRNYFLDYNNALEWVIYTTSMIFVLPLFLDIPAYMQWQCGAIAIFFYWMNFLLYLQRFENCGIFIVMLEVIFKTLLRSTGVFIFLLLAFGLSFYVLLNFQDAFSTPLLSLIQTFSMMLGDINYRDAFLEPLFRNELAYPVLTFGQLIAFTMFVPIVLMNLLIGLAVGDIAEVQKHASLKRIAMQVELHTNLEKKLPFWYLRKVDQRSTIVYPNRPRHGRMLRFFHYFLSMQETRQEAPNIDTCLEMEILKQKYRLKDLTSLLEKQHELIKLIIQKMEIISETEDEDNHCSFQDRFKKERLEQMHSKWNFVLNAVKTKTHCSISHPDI
Outline: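 CHO cells expressing rat or human TRPA1 were pre-treated with compound for 10 min, then given AITC (30 μM human, 10 μM rat) plus 5 μCi/ml 45Ca2+ for 3 min; final DMSO 0.5%. Lysate radioactivity was counted by scintillation. IC50 came from nonlinear regression of concentration-response curves as % of maximal response.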

| inhibition at 1 µM (human TRPA1) | inhibition at 10 µM (human TRPA1) | IC50 (human TRPA1) | inhibition at 10 µM (rat TRPA1) | inhibition at 1 µM (rat TRPA1) | IC50 (rat TRPA1) | Structure (SMILES) |
| --- | --- | --- | --- | --- | --- | --- |
| 97% | 99.7% | < 50 nM | 99.3% | 91% | 50 to 100 nM | Cn1c(=O)c2c(CC(=O)Nc3nc(-c4ccc(Cl)c(Cl)c4Cl)cs3)coc2n(C)c1=O [Example 34, N1-[4-(2,3,4-Trichlorophenyl)-1,3-thiazol-2-yl]-2-(1,3-dimethyl-2,4-dioxo-1,2,3,4-tetrahydrofuro[2,3-d]pyrimidin-5-yl)acetamide] |
| 99.8% | 98.4% | < 50 nM |  |  | < 50 nM | Cn1c(=O)c2c(CC(=O)Nc3nc(-c4ccc(F)c(C(F)(F)F)c4F)cs3)coc2n(C)c1=O [Example 35, N1-{4-[2,4-Difluoro-3-(trifluoromethyl)phenyl]-1,3-thiazol-2-yl}2-(1,3-dimethyl-2,4-dioxo-1,2,3,4-tetrahydrofuro[2,3-d]pyrimidin-5-yl)acetamide] |
| 99.7% | 99.6% | < 50 nM | 100% | 100% | 50 to 100 nM | Cn1c(=O)c2c(CC(=O)Nc3nc(-c4cc(F)c(C(F)(F)F)c(F)c4)cs3)coc2n(C)c1=O [Example 36, N1-{4-[3,5-Difluoro-4-(trifluoromethyl)phenyl]-1,3-thiazol-2-yl}-2-(1,3-dimethyl-2,4-dioxo-1,2,3,4-tetrahydrofuro[2,3-d]pyrimidin-5-yl)acetamide] |
| 99.9% | 99.7% | < 50 nM | 100% | 100% | 50 to 100 nM | Cn1c(=O)c2c(CC(=O)Nc3nc(-c4cc(F)c(OC(F)F)c(F)c4)cs3)coc2n(C)c1=O [Example 37, N1-{4-[3,5-Difluoro-4-(difluoromethoxy)phenyl]-1,3-thiazol-2-yl}-2-(1,3-dimethyl-2,4-dioxo-1,2,3,4-tetrahydrofuro[2,3-d]pyrimidin-5-yl)acetamide] |
| 99.8% | 99.9% | < 50 nM | 100% | 67% | > 100 nM | Cn1c(=O)c2c(CC(=O)Nc3nc(-c4cc(Cl)c(OC(F)F)c(Cl)c4)cs3)coc2n(C)c1=O [Example 38, N1-{4-[3,5-Dichloro-4-(difluoromethoxy)phenyl]-1,3-thiazol-2-yl}-2-(1,3-dimethyl-2,4-dioxo-1,2,3,4-tetrahydrofuro[2,3-d]pyrimidin-5-yl)acetamide] |
| 94.2% | 98.7% | < 50 nM |  |  | > 100 nM | Cn1c(=O)c2c(CC(=O)Nc3nc(-c4cc(F)c(OCC5CC5)c(F)c4)cs3)coc2n(C)c1=O [Example 39, N1-{4-[4-(Cyclopropylmethoxy)-3,5-difluorophenyl]-1,3-thiazol-2-yl]-2-(1,3-dimethyl-2,4-dioxo-1,2,3,4-tetrahydrofuro[2,3-d]pyrimidin-5-yl)acetamide] |
| 96.1% | 99.9% | < 50 nM |  |  | < 50 nM | Cn1c(=O)c2c(CC(=O)Nc3nc(-c4cc(F)c(OCC(C)(C)C)c(F)c4)cs3)coc2n(C)c1=O [Example 42, N1-{4-[3,5-Difluoro-4-(2,2-dimethylpropoxy)phenyl]-1,3-thiazol-2-yl}2-(1,3-dimethyl-2,4-dioxo-1,2,3,4-tetrahydrofuro[2,3-d]pyrimidin-5-yl)acetamide] |
| 99.2% | 99.7% | < 50 nM | 100% | 89.2% | 50 to 100 nM | Cn1c(=O)c2c(CC(=O)Nc3nc(-c4cc(Cl)c(OCC(C)(C)C)c(Cl)c4)cs3)coc2n(C)c1=O [Example 43, N1-{4-[3,5-Dichloro-4-(2,2-dimethylpropoxy)phenyl]-1,3-thiazol-2-yl}-2-(1,3-dimethyl-2,4-dioxo-1,2,3,4-tetrahydrofuro[2,3-d]pyrimidin-5-yl)acetamide] |
| 100% | 99.5% | < 50 nM | 99.2% | 71% | < 50 nM | Cn1c(=O)c2c(CC(=O)Nc3nc(-c4cc(F)c(OCC(C)(C)C)c(Cl)c4)cs3)coc2n(C)c1=O [Example 44, N1-{4-[3-Chloro-5-fluoro-4-(2,2-dimethylpropoxy)phenyl]-1,3-thiazol-2-yl}-2-(1,3-dimethyl-2,4-dioxo-1,2,3,4-tetrahydrofuro[2,3-d]pyrimidin-5-yl)acetamide] |
| 99.8% | 100% | < 50 nM | 99.5% | 96.1% | 50 to 100 nM | Cn1c(=O)c2c(CC(=O)Nc3nc(-c4cc(F)c(OCC(F)(F)F)c(F)c4)cs3)coc2n(C)c1=O [Example 46, N1-{4-[3,5-Difluoro-4-(2,2,2-trifluoroethoxy)phenyl]-1,3-thiazol-2-yl}-2-(1,3-dimethyl-2,4-dioxo-1,2,3,4-tetrahydrofuro[2,3-d]pyrimidin-5-yl)acetamide] |
| 99.2% | 99.8% | < 50 nM | 100% | 86% | < 50 nM | Cn1c(=O)c2c(CC(=O)Nc3nc(-c4cc(Cl)c(OCC(F)(F)F)c(Cl)c4)cs3)coc2n(C)c1=O [Example 47, N1-{4-[3,5-Dichloro-4-(2,2,2-trifluoroethoxy)phenyl]-1,3-thiazol-2-yl}2-(1,3-dimethyl-2,4-dioxo-1,2,3,4-tetrahydrofuro[2,3-d]pyrimidin-5-yl)acetamide] |
| 96.6% | 95.1% | < 50 nM | 99.2% | 99.6% | < 50 nM | Cn1c(=O)c2c(CC(=O)Nc3nc(-c4cc(F)c(OCC(F)(F)F)c(Cl)c4)cs3)coc2n(C)c1=O [Example 48, N1-{4-[3-Chloro-5-fluoro-4-(2,2,2-trifluoroethoxy)phenyl]-1,3-thiazol-2-yl}-2-(1,3-dimethyl-2,4-dioxo-1,2,3,4-tetrahydrofuro[2,3-d]pyrimidin-5-yl)acetamide] |
| 95.6% | 98.3% | < 50 nM | 97.7% | 86.6% | < 50 nM | Cn1c(=O)c2c(CC(=O)Nc3nc(-c4cc(F)c(OCCC(F)(F)F)c(F)c4)cs3)coc2n(C)c1=O [Example 49, N1-{4-[3,5-Difluoro-4-(3,3,3-trifluoropropoxy)phenyl]-1,3-thiazol-2-yl}-2-(1,3-dimethyl-2,4-dioxo-1,2,3,4-tetrahydrofuro[2,3-d]pyrimidin-5-yl)acetamide] |
| 99.6% | 98.3% |  | 100% | 99.9% |  | Cc1oc2c(c1CC(=O)Nc1nc(-c3ccc(C(F)(F)F)cc3)cs1)c(=O)n(C)c(=O)n2C [Example 50, N1-{4-[4-(Trifluoromethyl)phenyl]-1,3-thiazol-2-yl}-2-(1,3,6-trimethyl-2,4-dioxo-1,2,3,4-tetrahydrofuro[2,3-d]pyrimidin-5-yl)acetamide] |
| 99.8% | 100% |  | 100% | 100% |  | Cc1oc2c(c1CC(=O)Nc1nc(-c3cccc(C(F)(F)F)c3)cs1)c(=O)n(C)c(=O)n2C [Example 51, N1-{4-[3-(Trifluoromethyl)phenyl]-1,3-thiazol-2-yl}-2-(1,3,6-trimethyl-2,4-dioxo-1,2,3,4-tetrahydrofuro[2,3-d]pyrimidin-5-yl)acetamide] |
| 99.1% | 99.2% |  | 100% | 100% |  | Cc1oc2c(c1CC(=O)Nc1nc(-c3cccc(OC(F)(F)F)c3)cs1)c(=O)n(C)c(=O)n2C [Example 52, N1-{4-[3-(Trifluoromethoxy)phenyl]-1,3-thiazol-2-yl}-2-(1,3,6-trimethyl-2,4-dioxo-1,2,3,4-tetrahydrofuro[2,3-d]pyrimidin-5-yl)acetamide] |
| 99.7% | 97.3% |  | 100% | 100% |  | Cc1oc2c(c1CC(=O)Nc1nc(-c3ccc(OC(F)(F)F)cc3)cs1)c(=O)n(C)c(=O)n2C [Example 53, N1-{4-[4-(Trifluoromethoxy)phenyl]-1,3-thiazol-2-yl}-2-(1,3,6-trimethyl-2,4-dioxo-1,2,3,4-tetrahydrofuro[2,3-d]pyrimidin-5-yl)acetamide] |

| Structure (SMILES) | inhibition at 1 µM (human TRPA1) | inhibition at 10 µM (human TRPA1) | IC50 (human TRPA1) | inhibition at 10 µM (rat TRPA1) | inhibition at 1 µM (rat TRPA1) | IC50 (rat TRPA1) |
| --- | --- | --- | --- | --- | --- | --- |
| CC(C)COc1c(F)cc(-c2csc(NC(=O)Cc3coc4c3c(=O)n(C)c(=O)n4C)n2)cc1F [Example 40, N1-{4-(3,5-Difluoro-4-isobutoxyphenyl)-1,3-thiazol-2-yl}2-(1,3-dimethyl-2,4-dioxo-1,2,3,4-tetrahydrofuro[2,3-d]pyrimidin-5-yl)acetamide] | 93.2% | 99.2% | < 50 nM | 99.6% | 99.2% | < 50 nM |
| CC(C)COc1c(Cl)cc(-c2csc(NC(=O)Cc3coc4c3c(=O)n(C)c(=O)n4C)n2)cc1Cl [Example 41, N1-[4-(3,5-Dichloro-4-isobutoxyphenyl)-1,3-thiazol-2-yl]-2-(1,3-dimethyl-2,4-dioxo-1,2,3,4-tetrahydrofuro[2,3-d]pyrimidin-5-yl)acetamide] | 99.6% | 100% | < 50 nM | 100% | 99.5% | < 50 nM |
